{"source": "patent US20030195350A1", "about": "“Individualization of therapy with antiviral agents” (priority 2001, published 2003)", "key": {"[1]": {"system": "AAMU-Ab", "experiment": "Competitive antigen ELISA, cross-reactivity of AAMU-Ab", "assay_type": "binding, rabbit", "conditions": "0 = absence of inhibition or inhibition no higher than 40% at 5 × 10^−3 M", "procedure": "(§1) Buffers and water without additives are filtered through millipore filters and kept for 1 week. BSA, antibodies, Tween™ 20 and horse radish peroxidase conjugates are added to these buffers and water just prior to use. Urine samples are usually collected 4 hours after drinking a cup of coffee (instant or brewed with approximately 100 mg of caffeine per cup) and stored at −80° C. The urine samples are diluted 10 times with sodium phosphate buffer (620 mosm, pH 7.50) and are subsequently diluted with water to give concentrations of AAMU and 1X no higher than 3×10^−6 M in the ELISA. All the pipettings are done with an eight-channel pipette, except those of the antibody and sample solutions. Starting with the last well, 100 μL of a carbonate buffer (100 mM, pH 9.6) containing 2.5 μg mL^−1 antibodies are added to each well. After 90 min. at room temperature, the wells are washed three times with […] of TPB: isotonic sodium phosphate buffer (310 mosm, pH 7.50) containing 0.05% Tween™ 20.\n(§2) After the initial wash, unoccupied sites are blocked by incubation for 90 min. at room temperature with 100 μL TBP containing 3% BSA. The wells are washed four times with 100 μL TPB. […] The microplate is gently shaken with an orbital shaker at room temperature for 3-4 hours. The wells are washed three times with 100 μL TPB containing 1% BSA and three times with water containing 0.05% Tween™ 20. To the washed plate is added 150 μL of a substrate buffer composed of citric acid (25 mM) and sodium phosphate dibasic buffer (50 mM, pH 5.0) containing 0.06% hydrogen peroxide and 0.04% o-phenylenediamine hydrochloride.\n(§3) Buffers and water without additives were filtered through millipore filters and kept for 1 week. BSA, antibodies, Tween™ 20 and horse radish peroxidase conjugates were added to these buffers and water just prior to use. Urine samples were usually collected 4 hours after drinking a cup of coffee (instant or brewed with approximately 100 mg of caffeine per cup) and stored at −80° C. They were diluted 10 times with sodium phosphate buffer (620 mosm, pH 7.50) and were subsequently diluted with water to give concentrations of AAMU and 1X no higher than 3×10^−6 M in the ELISA. All the pipettings were done with an eight-channel pipette, except those of the antibody and sample solutions. Starting with the last well, 100 μL of a carbonate buffer (100 mM, pH 9.6) containing 2.5 μg mL^−1 antibodies was pipetted. After 90 min. at room temperature, the wells were washed three times with 100 μL of TPB: isotonic sodium phosphate buffer (310 mosm, pH 7.50) containing 0.05% Tween™ 20.\n(§4) After the initial wash, unoccupied sites were blocked by incubation for 90 min. at room temperature with 100 μL TBP containing 3% BSA. The wells were washed four times with 100 μL TPB. […] The microplate was gently shaken with an orbital shaker at room temperature for 3-4 hours. The wells were washed three times with 100 μL with TPB containing 1% BSA and three times with water containing 0.05% Tween™ 20. To the washed plate was added 150 μL of a substrate buffer composed of citric acid (25 mM) and sodium phosphate dibasic buffer (50 mM, pH 5.0) containing 0.06% hydrogen peroxide and 0.04% o-phenylenediamine hydrochloride. After 20 min. at room temperature with shaking, the reaction was stopped with 50 μL of 2.5 N HCl.\n(§5) The cross reactivities of AAMU-Ab and 1X-Ab were tested using a wide variety of caffeine metabolites and structural analogs (Table 3 below)."}, "[2]": {"system": "1X-Ab", "experiment": "Competitive antigen ELISA, cross-reactivity of 1X-Ab", "assay_type": "binding, rabbit", "conditions": "0 = absence of inhibition or inhibition no higher than 40% at 5 × 10^−3 M", "procedure": "as §1, §2, §3, §4, §5"}, "[3]": {"conditions": "in vivo; cited from earlier work"}}, "note": "Marks after values point to notes of the source that are not given here.", "data": [{"smiles": "Cn1c(=O)c2c(ncn2C)n(C)c1=O", "note": "[1,3,7-Trimethyl Xanthine (Caffeine), 1,3,7-Trimethyl Xanthine]", "values": [{"measurement": "% Cross-Reaction AAMU-Ab", "setting": "[1]", "result": 0, "unit": "%"}, {"measurement": "% Cross-Reaction 1X-Ab", "setting": "[2]", "result": 0, "unit": "%"}]}, {"smiles": "Cn1c(=O)[nH]c2[nH]c(=O)[nH]c2c1=O", "note": "[1-Methyluric acid]", "values": [{"measurement": "% Cross-Reaction AAMU-Ab", "setting": "[1]", "result": 0, "unit": "%"}, {"measurement": "% Cross-Reaction 1X-Ab", "setting": "[2]", "result": 11, "unit": "%"}]}, {"smiles": "CC(=O)Nc1c(N)n(C)c(=O)[nH]c1=O", "note": "[5-Acetamino-6-amino-1-methyluracil]", "values": [{"measurement": "% Cross-Reaction AAMU-Ab", "setting": "[1]", "result": 100, "unit": "%"}, {"measurement": "% Cross-Reaction 1X-Ab", "setting": "[2]", "result": 0, "unit": "%"}]}, {"smiles": "CC(=O)Nc1c(N)n(C)c(=O)n(C)c1=O", "note": "[5-Acetamino-6-amino-1,3-dimethyluracil]", "values": [{"measurement": "% Cross-Reaction AAMU-Ab", "setting": "[1]", "result": 0, "unit": "%"}, {"measurement": "% Cross-Reaction 1X-Ab", "setting": "[2]", "result": 0, "unit": "%"}]}, {"smiles": "Cc1nc2[nH]c(=O)[nH]c(=O)c2[nH]1", "note": "[8-Methyl Xanthine]", "values": [{"measurement": "% Cross-Reaction AAMU-Ab", "setting": "[1]", "result": 0, "unit": "%"}, {"measurement": "% Cross-Reaction 1X-Ab", "setting": "[2]", "result": 0, "unit": "%"}]}, {"smiles": "Cn1c(=O)[nH]c2nc[nH]c2c1=O", "note": "[1-Methyl Xanthine (1X), 1-Methyl Xanthine]", "values": [{"measurement": "% Cross-Reaction AAMU-Ab", "setting": "[1]", "result": 0, "unit": "%"}, {"measurement": "% Cross-Reaction 1X-Ab", "setting": "[2]", "result": 100, "unit": "%"}]}, {"smiles": "O=c1[nH]cnc2nc[nH]c12", "note": "[Hypoxanthine]", "values": [{"measurement": "% Cross-Reaction AAMU-Ab", "setting": "[1]", "result": 0, "unit": "%"}, {"measurement": "% Cross-Reaction 1X-Ab", "setting": "[2]", "result": 0, "unit": "%"}]}, {"smiles": "Cn1c(=O)[nH]c2ncn(C)c2c1=O", "note": "[1,7-Dimethyl Xanthine (Paraxanthine), 1,7-Dimethyl Xanthine]", "values": [{"measurement": "% Cross-Reaction AAMU-Ab", "setting": "[1]", "result": 0, "unit": "%"}, {"measurement": "% Cross-Reaction 1X-Ab", "setting": "[2]", "result": 0.5, "unit": "%"}]}, {"smiles": "Cn1cnc2[nH]c(=O)[nH]c(=O)c21", "note": "[7-Methyl Xanthine]", "values": [{"measurement": "% Cross-Reaction AAMU-Ab", "setting": "[1]", "result": 0, "unit": "%"}, {"measurement": "% Cross-Reaction 1X-Ab", "setting": "[2]", "result": 0, "unit": "%"}]}, {"smiles": "Nc1nc2nc[nH]c2c(=O)[nH]1", "note": "[Guanine]", "values": [{"measurement": "% Cross-Reaction AAMU-Ab", "setting": "[1]", "result": 0, "unit": "%"}, {"measurement": "% Cross-Reaction 1X-Ab", "setting": "[2]", "result": 0, "unit": "%"}]}, {"smiles": "Cc1cn([C@H]2C[C@H](N=[N+]=[N-])[C@@H](CO)O2)c(=O)[nH]c1=O", "note": "[ZDV, zidovudine]", "values": [{"measurement": "Adverse event: Abdominal Pain", "setting": "[3]", "result": 5.9, "unit": "%"}, {"measurement": "Adverse event: Anorexia", "setting": "[3]", "result": 4.2, "unit": "%"}, {"measurement": "Adverse event: Anxiety", "setting": "[3]", "result": 0.8, "unit": "%"}, {"measurement": "Adverse event: Arthralgia", "setting": "[3]", "result": 0.0, "unit": "%"}, {"measurement": "Adverse event: Asthenia", "setting": "[3]", "result": 11.8, "unit": "%"}, {"measurement": "Adverse event: Circumoral Paresthesia", "setting": "[3]", "result": 0.0, "unit": "%"}, {"measurement": "Adverse event: Confusion", "setting": "[3]", "result": 0.0, "unit": "%"}, {"measurement": "Adverse event: Constipation", "setting": "[3]", "result": 0.8, "unit": "%"}, {"measurement": "Adverse event: Depression", "setting": "[3]", "result": 2.5, "unit": "%"}, {"measurement": "Adverse event: Diarrhea", "setting": "[3]", "result": 2.5, "unit": "%"}, {"measurement": "Adverse event: Dizziness", "setting": "[3]", "result": 3.4, "unit": "%"}, {"measurement": "Adverse event: Dyspepsia", "setting": "[3]", "result": 1.7, "unit": "%"}, {"measurement": "Adverse event: Fecal Incontinence", "setting": "[3]", "result": 0.0, "unit": "%"}, {"measurement": "Adverse event: Fever", "setting": "[3]", "result": 1.7, "unit": "%"}, {"measurement": "Adverse event: Flatulence", "setting": "[3]", "result": 1.7, "unit": "%"}, {"measurement": "Adverse event: Headache", "setting": "[3]", "result": 6.7, "unit": "%"}, {"measurement": "Adverse event: Insomnia", "setting": "[3]", "result": 0.8, "unit": "%"}, {"measurement": "Adverse event: Local Throat Irritation", "setting": "[3]", "result": 0.8, "unit": "%"}, {"measurement": "Adverse event: Malaise", "setting": "[3]", "result": 3.4, "unit": "%"}, {"measurement": "Adverse event: Myalgia", "setting": "[3]", "result": 0.8, "unit": "%"}, {"measurement": "Adverse event: Nausea", "setting": "[3]", "result": 26.1, "unit": "%"}, {"measurement": "Adverse event: Nocturia", "setting": "[3]", "result": 0.0, "unit": "%"}, {"measurement": "Adverse event: Pain (unspecified)", "setting": "[3]", "result": 0.8, "unit": "%"}, {"measurement": "Adverse event: Paresthesia", "setting": "[3]", "result": 0.0, "unit": "%"}, {"measurement": "Adverse event: Peripheral Paresthesia", "setting": "[3]", "result": 0.8, "unit": "%"}, {"measurement": "Adverse event: Pharyngitis", "setting": "[3]", "result": 0.0, "unit": "%"}, {"measurement": "Adverse event: Rash", "setting": "[3]", "result": 0.8, "unit": "%"}, {"measurement": "Adverse event: Somnolence", "setting": "[3]", "result": 0.0, "unit": "%"}, {"measurement": "Adverse event: Sweating", "setting": "[3]", "result": 1.7, "unit": "%"}, {"measurement": "Adverse event: Syncope", "setting": "[3]", "result": 0.8, "unit": "%"}, {"measurement": "Adverse event: Taste Perversion", "setting": "[3]", "result": 8.4, "unit": "%"}, {"measurement": "Adverse event: Thinking Abnormal", "setting": "[3]", "result": 0.8, "unit": "%"}, {"measurement": "Adverse event: Vasodilation", "setting": "[3]", "result": 0.8, "unit": "%"}, {"measurement": "Adverse event: Vomiting", "setting": "[3]", "result": 12.6, "unit": "%"}, {"measurement": "Adverse event: Weight Loss", "setting": "[3]", "result": 0.0, "unit": "%"}]}, {"smiles": "O=c1cc[nH]c(=O)[nH]1", "note": "[Uracil]", "values": [{"measurement": "% Cross-Reaction AAMU-Ab", "setting": "[1]", "result": 0, "unit": "%"}, {"measurement": "% Cross-Reaction 1X-Ab", "setting": "[2]", "result": 0, "unit": "%"}]}, {"smiles": "CC(=O)Nc1c(N)[nH]c(=O)[nH]c1=O", "note": "[5-Acetamino-6-amino-uracil]", "values": [{"measurement": "% Cross-Reaction AAMU-Ab", "setting": "[1]", "result": 0.6, "unit": "%"}, {"measurement": "% Cross-Reaction 1X-Ab", "setting": "[2]", "result": 0, "unit": "%"}]}, {"smiles": "O=c1[nH]c(=O)c2[nH]c(=O)[nH]c2[nH]1", "note": "[Uric acid]", "values": [{"measurement": "% Cross-Reaction AAMU-Ab", "setting": "[1]", "result": 0, "unit": "%"}, {"measurement": "% Cross-Reaction 1X-Ab", "setting": "[2]", "result": 0, "unit": "%"}]}, {"smiles": "Cn1cnc2c1c(=O)[nH]c(=O)n2C", "note": "[3,7-Dimethyl Xanthine (Theobromine), 3,7-Dimethyl Xanthine]", "values": [{"measurement": "% Cross-Reaction AAMU-Ab", "setting": "[1]", "result": 0, "unit": "%"}, {"measurement": "% Cross-Reaction 1X-Ab", "setting": "[2]", "result": 0, "unit": "%"}]}, {"smiles": "Cn1c(=O)[nH]c2[nH]c(=O)n(C)c2c1=O", "note": "[1,7-Dimethyluric acid]", "values": [{"measurement": "% Cross-Reaction AAMU-Ab", "setting": "[1]", "result": 0, "unit": "%"}, {"measurement": "% Cross-Reaction 1X-Ab", "setting": "[2]", "result": 0, "unit": "%"}]}, {"smiles": "O=c1[nH]c(=O)c2[nH]cnc2[nH]1", "note": "[Xanthine]", "values": [{"measurement": "% Cross-Reaction AAMU-Ab", "setting": "[1]", "result": "0^a %"}, {"measurement": "% Cross-Reaction 1X-Ab", "setting": "[2]", "result": 0, "unit": "%"}]}, {"smiles": "Cn1c(=O)[nH]c(=O)c2[nH]cnc21", "note": "[3-Methyl Xanthine]", "values": [{"measurement": "% Cross-Reaction AAMU-Ab", "setting": "[1]", "result": 0, "unit": "%"}, {"measurement": "% Cross-Reaction 1X-Ab", "setting": "[2]", "result": 0, "unit": "%"}]}]}
